Read-outs that look alike come from different tables or passages of the source.
Legend:
in vivo = test: in vivo; design: species or system souris; details: mouse, po
From the text: (§1) L'invention a donc encore pour objet un médicament ayant en particulier des activités anticonvulsivante et antianoxique caractérisé en ce qu'il contient, à titre de principe actif un dérivé de formule I. Tous les essais Toxico-pharmacologiques ont été pratiqués sur des souris mâles de souche CHARLES RIVER (CD1).
Dans le cadre de cette étude, on a déterminé l'activité sédative des composés de l'invention; on a utilisé dans ce but, le test du cylindre tournant (Boissier, J.R., Therapie 1958, 13,1074).
Ce test est destiné à apprécier l'aptitude des animaux à coordonner leurs mouvements. Il met en oeuvre un cylindre de bois, d'un diamètre de 4,8 cm, qui-tourne à la vitesse de 4 tours/mn. Le test est pratiqué sur des souris d'un poids 22 g environ. Les produits sont administrés par voie orale à différents lots de 10 animaux. Ces derniers sont placés sur l'appareil 15 minutes après l'administration du produit. On note le pourcentage de souris qui perdent le réflexe d'équilibration, c'est-à-dire qui deviennent incapables de se maintenir sur le cycindre pendant une durée de 2 minutes.
Par la méthode de Finney, on calcule une dose neuroto- xique 50 (DNT 50) qui exprime donc le niveau moyen -des premières atteintes neuromusculaires sous l'influence d'un produit étudié.

anoxie par confinement = test: Anoxia by confinement (antianoxic activity, survival time); format: in vivo, souris; details: I.P. immediately before placing in closed 200 ml vessel, mouse; dose not given
From the text: as §1
Cette activité a été étudiée par la méthode de l'anoxie par confinement.
Des souris (20 par lot) sont placées dans une enceinte (bocal en verre) normobare, normoxique, hermétiquement close de 200 ml. Tous les traitements sont administrés par voie I.P. immédiatement avant l'introduction dans l'enceinte. L'animal est considéré comme mort au moment de l'arrêt respiratoire.
Les bocaux choisis étant très petits, l'activité motrice des animaux est extrêmement faible, ce qui élimine en principe la possibilité d'un résultat positif par effet sédatif. On note dans chaque lot le temps de survie des animaux.

[1] = system: Crise électrique supramaximale; test: Supramaximal electroshock seizure test; format: in vivo, souris; details: po, 0.5 h; per os, 30 min before supramaximal electroshock (50 HZ, 60 volts, 0,4 sec.), mouse; read-out: DE 50 (hyperextension tonique)
From the text: as §1
Cette expérimentation a été effectuée selon le test de Swinyard et al., (Am.J.Pharmacol, Ther., 1952,168-175). Les traitements ont été administrés per os à des lots de 10 souris 30 mn, avant l'électrochoc supramaximal (courant alternatif de 50 HZ, 60 volts pendant 0,4 sec.) délivré par l'intermédiaire d'électrodes intra-auriculaires. On note le nombre d'animaux dans chaque lot qui ne présentent pas d'hy- perextension tonique lors de la stimulation électrique trans- cranienne, et on détermine la DE 50 exprimée en mg/Kg.

Crise pentétrazolique = test: Pentetrazole seizure test (protection against tonic seizures); format: in vivo, souris; details: read-out: DE 50 (protection contre les crises toniques)
From the text: On note dans chaque lot le pourcentage de protection contre les crises toniques.

[2] = system: Crise à l'acide B - mercaptopropionique; test: B-mercaptopropionic acid seizure test; format: in vivo, souris; details: oral, 15 min before acide B-mercaptopropionique 60 mg/Kg I.P., mouse; read-out: DE 50 (the source's name)
From the text: as §1
L'acide B-mercaptopropionique est un inhibiteur de la glutamate-décarboxylase (GAD), enzyme qui catalyse la transformation du glutamate en acide Y-aminobutyrique (GABA). Son action se traduit donc par un abaissemement du taux de ŒBA et la survenue de crises généralisées tonico-cloniques 3 à 4 minutes après son administration. L'acide B-mercaptopropionique a été administré aux souris par voie I.P. à la dose de 60 mg/Kg. Le traitement pour les composés à tester est administré par la voie orale 15 minutes avant l'injection d'acide B-mercaptopionique. Les DE 50 exprimées en mg/Kg, ainsi déterminées sont : • Composé N° 2 = 90 • 5 = 30 • 6 = 60 • 7 = 120 • 8 = 70

Crise à la bicuculline = test: Bicuculline seizure test; format: in vivo, souris; details: oral, 30 min before bicuculline 0.65 mg/Kg i.v., observed for 30 min, mouse; read-out: DE 50 (convulsions toniques)
From the text: as §1
Ce test a été effectué selon la méthode de Pérez de la Mora et Tapia (Biochem. Pharmacol., 1973,19,303-310). Les traitements ont été administrés par voie orale à des lots de 10 souris, 30 minutes avant l'injection de bicuculline (0.65 mg/Kg) par la voie intraveineuse. L'apparition des convulsions toniques a été notée pendant les 30 mn qui ont suivi l'injection de bicuculline. Les DE 50 en mg/Kg ainsi déterminées sont : • Composé N° 5 = 68 • 6 = 61 • 7 = 145 • 8 = 75

[3] = Acute oral toxicity (DL 50, Finney method); design: species or system souris; details: in vivo, mouse
Method: as §1
Ainsi, la DL 50 déterminée par voie orale chez la souris par la méthode Finney(Probit analysis, University Press Cambridge.,. 1971) est de 3000 mg/Kg pour le dérivé N° 5'et supérieure à 1000 mg/Kg pour tous les composés de l'invention.

[4] = oral, 15 min before pentétrazole 125 mg/Kg i.p., mouse

Structure (SMILES)	TD50 at 0.25 h (in vivo) [mg/kg]	temps de survie augmenté (anoxie par confinement) [p 100]	ED50 [1] [mg/kg]	ED50 (Crise pentétrazolique; [4]) [mg/kg]	ED50 [2] [mg/kg]	ED50 (Crise à la bicuculline) [mg/kg]	LD50 [3] [mg/kg]	ED50 (Crise pentétrazolique; Mus musculus, po) [mg/kg]
CC1(C(=O)O)CC2CCC(C2)C1 (stereo not shown) [dérivé N° 2, Méthyl-3 bicyclo (3.2.1.) octane carboxylate -3 de sodium]	600	15	400	90	90			
CNC(=O)C1(C)CC2CCC(C2)C1 (stereo not shown) [dérivé N° 8, N-Méthyl mêthyl-3 bicyclo (3.2.1.) octane carboxamide-3]	500		310	115	70	75		
CC(C)C1(C(N)=O)CC2CCC(C2)C1 (stereo not shown) [dérivé N° 7, Isopropyl-3 bicyclo (3.2.1.) octane carboxamide -3]	230		260	120	120	145		
CC1(C(N)=O)CC2CCC(C2)C1 (stereo not shown) [dérivé N° 5, Méthyl-3 bicyclo (3.2.1.) octane carboxamide-3]	365	25	210	53	30	68	3000	
CCC1(C(N)=O)CC2CCC(C2)C1 (stereo not shown) [dérivé N° 6, Ethyl-3 bicyclo (3.2.1.) octane carboxamide-3]	400		210	75	60	61		
CCCC(CCC)C(=O)O [valproate de sodium, reference compound]								200

Reference: EP0130882A2, “Bicyclo(3.2.1)octane carboxylic-acid derivatives, processes for their preparation and their therapeutical use” (SANOFI, priority 1983, dated 1985)
